Source: ChEMBL document CHEMBL5032511, “Improving Druggability of Novel Diarylpyrimidine NNRTIs by a Fragment-Based Replacement Strategy: From Biphenyl-DAPYs to Heteroaromatic-Biphenyl-DAPYs” (J Med Chem, 2021)

Tests used:
[1] = Stability in human liver microsome assessed as binding constant at 1 uM in presence of NADPH by LC/MS/MS analysis; conditions: microsomes
[2] = Stability in rat liver microsome assessed as binding constant at 1 uM in presence of NADPH by LC/MS/MS analysis; conditions: microsomes
[3] = test system: Human immunodeficiency virus 1; assay: Antiviral activity against HIV1 IIIB infected human MT4 cells assessed as protection against virus-induced cytopathic effect by MTT assay; format: functional, organism-based; conditions: Human immunodeficiency virus 1, IIIB
[4] = Cytotoxicity against mock infected human MT4 cells by MTT assay
[5] = Selectivity index, ratio of CC50 for mock infected human MT4 cells to IC50 for HIV1 IIIB infected human MT4 cells
[6] = Solubility of compound in PBS at pH 4.5 by HPLC-UV analysis; format: physicochemical
[7] = Aqueous solubility of compound in PBS at pH 7 by HPLC-UV analysis
[8] = Oral bioavailability in Sprague-Dawley rat at 5 mg/kg by LCMS analysis; format: ADME, organism-based; conditions: in vivo
in vitro [9] = conditions: rat, microsomes
in vitro [10] = conditions: rat, microsomes; remark: listed apart in the source
[11] = test system: Human immunodeficiency virus 1; assay: Anti-viral activity against HIV1 harboring RT E138K mutant infected […] cells assessed as protection against virus-induced cytopathic effect by MTT assay; format: functional, organism-based; conditions: Human immunodeficiency virus 1, MT4
[12] = test system: Human immunodeficiency virus 1; assay: Anti-viral activity against HIV1 harboring RT K103N mutant infected […] cells assessed as protection against virus-induced cytopathic effect by MTT assay; format: functional, organism-based; conditions: Human immunodeficiency virus 1, MT4
[13] = molecular target: Human immunodeficiency virus type 1 reverse transcriptase (Human immunodeficiency virus 1, UniProt Q72547); assay: Inhibition of recombinant wild-type HIV1 p66/p51 reverse transcriptase assessed as inhibition of [3H][…] incorporation using poly (rA) as templates incubated for 40 mins by spectrofluorometer
[14] = test system: Human immunodeficiency virus 1; assay: Anti-viral activity against HIV1 harboring RT L100I mutant infected […] cells assessed as protection against virus-induced cytopathic effect by MTT assay; format: functional, organism-based; conditions: Human immunodeficiency virus 1, MT4
[15] = test system: Human immunodeficiency virus 1; assay: Anti-viral activity against HIV1 harboring RT Y181C mutant infected […] cells assessed as protection against virus-induced cytopathic effect by MTT assay; format: functional, organism-based; conditions: Human immunodeficiency virus 1, MT4
[16] = test system: Human immunodeficiency virus 1; assay: Anti-viral activity against HIV1 harboring RT Y188L mutant infected […] cells assessed as protection against virus-induced cytopathic effect by MTT assay; format: functional, organism-based; conditions: Human immunodeficiency virus 1, MT4
[17] = Aqueous solubility of compound in PBS at pH 7.4 by HPLC-UV analysis

SMILES	EC50 [3]	CC50 [4]	selectivity ratio [5]	EC50 [11]	EC50 [12]	IC50 [13]	EC50 [14]	EC50 [15]	EC50 [16]	other results
Cc1cc(-c2ccc(C#N)cc2)cc(C)c1Nc1ccnc(Nc2ccc(C#N)cc2)n1	1 nM	2.1 µM	2080	–	–	–	–	–	–	K [1]: 0.047 min⁻¹; K [2]: 0.045 min⁻¹
O=c1c2nc([N+](=O)[O-])cn2ccn1Cc1ccccc1	–	–	–	–	–	–	–	–	–	solubility ([6]; buffer): Insoluble
Cl.N#Cc1ccc(Nc2nccc(Nc3c(F)cc(-c4ccc(C#N)cc4)cc3F)n2)cc1	–	–	–	–	–	–	–	–	–	solubility ([7]; PBS): 5.6 µg/mL
N#Cc1ccc(Nc2nccc(Nc3c(F)cc(-c4ccc(C#N)cc4)cc3F)n2)cc1	1 nM	> 294 µM	–	–	–	–	–	–	–	K [1]: 0.0219 min⁻¹; K [2]: 0.0157 min⁻¹; bioavailability [8]: 44%; half-life at 1 µM (in vitro [9]): 44.3 min; microsomal CLint at 1 µM (in vitro [10]): 15.7 µL/min/mg
N#Cc1ccc(Nc2nccc(Nc3c(F)cc(-c4cncnc4)cc3F)n2)cc1	11.9 nM	2.7 µM	229	137 nM	326 nM	87 nM	1790 nM	–	–	–
N#Cc1ccc(Nc2nccc(Nc3c(F)cc(-c4cccnc4)cc3F)n2)cc1	7.4 nM	242 µM	32700	149 nM	223 nM	58 nM	583 nM	473 nM	–	–
N#Cc1ccc(Nc2nccc(Nc3c(F)cc(-c4cc(F)nc(F)c4)cc3F)n2)cc1	5.6 nM	11 µM	1970	57 nM	199 nM	13 nM	898 nM	476 nM	–	–
N#Cc1ccc(Nc2nccc(Nc3c(F)cc(-c4ccnc(F)c4F)cc3F)n2)cc1	2 nM	> 286 µM	> 147000	13.5 nM	11.5 nM	8.3 nM	63 nM	21.3 nM	1640 nM	–
COc1cc(-c2cc(F)c(Nc3ccnc(Nc4ccc(C#N)cc4)n3)c(F)c2)ccn1	13 nM	6.7 µM	501	260 nM	239 nM	30 nM	645 nM	389 nM	–	–
N#Cc1ccc(Nc2nccc(Nc3c(F)cc(-c4ccncc4)cc3F)n2)cc1	–	–	–	4 nM	8 nM	7.4 nM	20.4 nM	15 nM	417 nM	–
Cc1cc(-c2cc(F)c(Nc3ccnc(Nc4ccc(C#N)cc4)n3)c(F)c2)ccn1	4.1 nM	3.2 µM	777	52 nM	77.7 nM	29 nM	383 nM	144 nM	1090 nM	–
N#Cc1ccc(Nc2nccc(Nc3c(F)cc(-c4csc5ccccc45)cc3F)n2)cc1	124 nM	16 µM	132	601 nM	5790 nM	59 nM	6450 nM	6210 nM	7480 nM	–
N#Cc1ccc(Nc2nccc(Nc3c(F)cc(-c4ccc(N)cc4)cc3F)n2)cc1	9.2 nM	> 303 µM	> 32900	37 nM	144 nM	37 nM	561 nM	482 nM	1180 nM	–
N#Cc1ccc(Nc2nccc(Nc3c(F)cc(-c4ccsc4)cc3F)n2)cc1	3.9 nM	55.4 µM	14000	14 nM	171 nM	11 nM	301 nM	212 nM	1040 nM	–
N#Cc1ccc(Nc2nccc(Nc3c(F)cc(-c4ccco4)cc3F)n2)cc1	2.1 nM	16.6 µM	7910	10 nM	71 nM	10 nM	86 nM	84 nM	2170 nM	–
N#Cc1ccc(Nc2nccc(Nc3c(F)cc(-c4ccnc(-c5ccnc(Cl)c5)c4)cc3F)n2)cc1	16.8 nM	51 µM	3070	160 nM	176 nM	110 nM	1150 nM	779 nM	–	–
N#Cc1ccc(Nc2nccc(Nc3c(F)cc(-c4cn[nH]c4)cc3F)n2)cc1	10 nM	3.1 µM	298	101 nM	251 nM	43 nM	–	–	–	–
Cc1cc(C#Cc2ccccn2)cc(C)c1Oc1ccnc(Nc2ccc(C#N)cc2)n1	3 nM	–	–	–	–	–	–	–	–	–

SMILES	EC50 [3]	CC50 [4]	selectivity ratio [5]	EC50 [11]	EC50 [12]	IC50 [13]	EC50 [14]	EC50 [15]	EC50 [16]	other results
N#Cc1ccc(Nc2nccc(Nc3c(F)cc(-c4ccncc4F)cc3F)n2)cc1	1.3 nM	3.3 µM	2570	2.3 nM	1.9 nM	9.1 nM	7.4 nM	7 nM	92 nM	–
N#Cc1ccc(Nc2nccc(Nc3c(F)cc(-c4ccnc(F)c4)cc3F)n2)cc1	3.8 nM	5 µM	1310	14.3 nM	42 nM	11 nM	397 nM	80 nM	1260 nM	–
N#Cc1ccc(Nc2nccc(Nc3c(F)cc(-c4ccnc(C#N)c4F)cc3F)n2)cc1	2 nM	> 282 µM	> 143000	11 nM	14 nM	11 nM	80 nM	42 nM	18300 nM	–
N#Cc1ccc(Nc2nccc(Nc3c(F)cc(-c4ccnc(Cl)c4Cl)cc3F)n2)cc1	5.5 nM	20 µM	3670	39 nM	48 nM	16 nM	325 nM	73 nM	1640 nM	–
N#Cc1ccc(Nc2nccc(Nc3c(F)cc(-c4coc5ccccc45)cc3F)n2)cc1	44 nM	87 µM	1990	335 nM	1300 nM	28 nM	3450 nM	2750 nM	6340 nM	–
Cc1cc(C#Cc2ccccc2)cc(C)c1Oc1ccnc(Nc2ccc(C#N)cc2)n1	38 nM	–	–	–	–	–	–	–	–	–
N#Cc1ccc(Nc2nccc(Nc3c(F)cc(-c4ccnc(Cl)c4)cc3F)n2)cc1	6.8 nM	4.2 µM	622	61 nM	101 nM	14 nM	415 nM	254 nM	> 1540 nM	–
Cc1cc(-c2cc(F)c(Nc3ccnc(Nc4ccc(C#N)cc4)n3)c(F)c2)cc(C)n1	56 nM	1.2 µM	21	–	–	336 nM	–	–	–	–
N#Cc1ccc(Nc2nccc(Nc3c(F)cc(-c4ccoc4)cc3F)n2)cc1	3.2 nM	10.6 µM	3290	13 nM	35 nM	10 nM	100 nM	114 nM	2180 nM	–
N#Cc1ccc(Nc2nccc(Nc3c(F)cc(-c4cc(Cl)nc(Cl)c4)cc3F)n2)cc1	56 nM	5.4 µM	97	311 nM	1090 nM	96 nM	–	–	–	–
O=c1c2nc([N+](=O)[O-])cn2ccn1Cc1cccnc1	–	–	–	–	–	–	–	–	–	solubility ([6]; PBS, read-out: solubility): > 200 µM
N#Cc1ccc(Nc2nccc(Nc3c(F)cc(-c4cccs4)cc3F)n2)cc1	4.1 nM	> 308 µM	> 74600	11 nM	102 nM	5.9 nM	363 nM	136 nM	1130 nM	–
O=C1Nc2ccc(Cl)cc2[C@@](C#CC2CC2)(C(F)(F)F)O1 [EFAVIRENZ]	–	> 6.33 µM	–	7.5 nM	–	–	–	–	269 nM	–
Cc1cc(C#N)cc(C)c1Oc1nc(Nc2ccc(C#N)cc2)nc(N)c1Br [ETRAVIRINE]	–	> 4.6 µM	–	–	3.4 nM	–	–	–	29.3 nM	solubility ([7]; PBS): < 1 µg/mL; solubility ([17]; PBS): < 1 µg/mL
Cc1ccnc2c1NC(=O)c1cccnc1N2C1CC1 [NEVIRAPINE]	–	> 15 µM	–	288 nM	–	–	–	–	–	–
Cc1cc(/C=C/C#N)cc(C)c1Nc1ccnc(Nc2ccc(C#N)cc2)n1.Cl [RILPIVIRINE HYDROCHLORIDE]	–	–	–	–	–	–	–	–	–	bioavailability [8]: 32%
Cc1cc(/C=C/C#N)cc(C)c1Nc1ccnc(Nc2ccc(C#N)cc2)n1 [RILPIVIRINE]	–	–	–	–	–	–	–	–	–	solubility ([7]; buffer): < 1 µg/mL; solubility ([17]; buffer): < 1 µg/mL
